Measurements as given in patent US5912372A, “Water-miscible esters of monoglycerides having antimicrobial activity” (priority 1997, dated 1999).

Test system: human respiratory syncytial virus (RSV)
Experiment: RSV inhibition assay in LLC-MK2 cells, PBS as diluent
Assay type: cell-based
Details: compound alone
Procedure: Additional studies were performed to determine the synergistic anti-viral effects of diacetyltartaric acids esters of monoglycerides, lipophilic monoglycerides (MG) and carrageenan. These studies were carried out using […] and PBS as the diluent. The RSV inhibition assay semi-quantitativelydetermines the ability of a test material (antibody or other bioactive compound) to inhibit the infection of monkey kidney cells (LLC-MK2) by human respiratory syncytial virus (RSV). Infected cells are identified using an immunoperoxidase method and counted. The method is performed in a microtiter format and is described briefly below:
LLC-MK2 rhesus monkey kidney cells were obtained from the American Type Culture Collection and were cultured in Eagles modified essential medium (EMEM) supplemented with 10% fetal bovine serum. For RSV inhibition assays, LLC-MK2 cells at 5,000 cells/well were seeded into fibronectin treated microtiter plates and incubated for 3-4 days prior to use in the infectivity reduction assay. […] Plates were then rinsed as above with PBS/CEA, and the number of stained RSV-infected cells (IC) per well determined using an inverted microscope. The number of ICs' in triplicate wells was compared with the number of ICs' of virus control wells (mean of 9) and the percent inhibition (PI) calculated; [PI=1.0-[Mean ICs' per well of test sample/Mean ICs' per well of virus control]. […]

## Carrageenan
  Enhancement Factor: 1.0
